Legend:
[1] = target: T1, KRASG12C (Homo sapiens, UniProt P01116, G12C); assay: Western blot of KRASG12C and effector signaling in SW1463 cells; type: cell-based; conditions: for PROTAC-mediated degradation of KRASG12C on combining with LC-2 / phosphorylation of MEK and ERK on combining with LC-2: lapatinib 5 μM or tariquidar 0.01 μM
T1 construct: endogenous in cells; host or cells: SW1463
Experimental: (§2) Samples were harvested in MIB lysis buffer (50 mM HEPES (pH 7.5), 0.5% Triton X-100, 150 mM NaCl, 1 mM EDTA, 1 mM EGTA, 10 mM sodium fluoride, 2.5 mM sodium orthovanadate, 1× protease inhibitor cocktail (Roche), and 1% each of phosphatase inhibitor cocktails 2 and 3 (Sigma)). Particulate was removed by centrifugation of lysates at 21,000 rpm for 15 minutes at 4° C. Lysates were subjected to SDS-PAGE chromatography and transferred to PVDF membranes before western blotting with primary antibodies. […] Secondary HRP-anti-rabbit and HRP-anti-mouse were obtained from ThermoFisher Scientific. SuperSignal West Pico and Femto Chemiluminescent Substrates (Thermo) were used to visualize blots.

[2] = test system: SW1463 or SW837 KRASG12C cells; assay: Colony formation assay (14 days) in KRASG12C CRC cells; conditions: 1 μM
[3] = test system: HCT-15, DLD-1 and CAKI-1 cells (MDR1 overexpressing); assay: CellTiter-Glo cell viability of MDR1 overexpressing vs low MDR1 cancer cell lines; conditions: HCT-15, DLD-1, CAKI-1 vs A1847, SUM159, MOLT4; escalating doses, 5 days
[4] = test system: A1847 Parental or dBET6-R cells; assay: Western blot for cross-resistance to other PROTACs; type: cell-based; conditions: A1847 dBET6-R vs parental; 1 μM, 24 hours
[5] = test system: MDR1 (ABCB1); assay: Single-run proteomics (LC-MS/MS, label-free quantitation) of degrader-resistant cells; type: cell-based, human; conditions: A1847 cells chronically exposed to the degrader (degrader-R) vs parental
Experimental: To determine changes in cells chronically exposed to BET or CDK9 PROTACs, we performed single-run proteome analysis as previously described (Lai et al., Front. Oncol., 2020, 10, 2336). Briefly, WT or PROTAC-R cells were lysed in 50 mM HEPES pH 8.0+4% SDS, and 100 μg of proteins were digested using LysC and trypsin. Digested peptides were isolated using C-18 and PGC columns, then dried and cleaned with ethyl acetate. Three […] peptides were analyzed using LC-MS/MS. MaxQuant normalized LFQ values were imported into Perseus software (1.6.2.3) and filtered in the following manner: kinases identified by site only were removed, reverse, or potential contaminant were removed then filtered for kinases identified by >1 unique peptide. Protein LFQ values were log 2 transformed, filtered for a minimum valid number of 3, normalized using Z-scores, annotated, and subjected to a Student's t-test with comparing […]. […]
Proteolytic peptides were resuspended in 0.1% formic acid and separated with a Thermo Scientific RSLC nano Ultimate 3000 LC on a Thermo Scientific Easy-Spray C18 PepMap 75 μm×50 cm C-18 2 μm column. […] Eluted peptides were analyzed by Thermo Scientific Q Exactive or Q Exactive plus mass spectrometers utilizing a top 15 methodology in which the 15 most intense peptide precursor ions were subjected to fragmentation. […]
Raw data analysis of LFQ experiments was performed using MaxQuant software 1.6.1.0 and searched using Andromeda 1.5.6.0 against the Swiss-Prot human protein database (downloaded on Apr. 24, 2019, 20402 entries). […] LFQ quantitation was performed using MaxQuant with the following parameters; LFQ minimum ratio count: Global parameters for protein quantitation were as follows: label minimum ratio count: 1, peptides used for quantitation: unique, only use modified proteins selected and with normalized average ratio estimation selected. Match between runs was employed for LFQ quantitation and the significance threshold of the ion score was calculated based on a false discovery rate of <1%.

[6] = target: T2, CDK9 (Homo sapiens, UniProt P50750); assay: Western blot of CDK9 degradation, A1847 parental vs Thal-R cells; type: cell-based
Experimental: as §2

[7] = test system: A1847 and SUM159 parental and degrader-resistant cells; assay: CellTiter-Glo cell viability, parental vs degrader-resistant cells; conditions: for sensitivity of degrader-resistant cells vs parental cells (cell viability): increasing concentrations, A1847 dBET6-R, Thal-R, MZ1-R and SUM159 MZ1-R
[8] = target: T2, CDK9; assay: Western blot of CDK9 degradation in DLD-1 cells; type: cell-based; set-up: endogenous in cells; host or cells: DLD-1; conditions: 4 hours
Experimental: as §2

[9] = test system: BET proteins (BRD2, BRD3 or BRD4); assay: Western blot of BET protein degradation, parental vs degrader-resistant cells; type: cell-based
Experimental: as §2

[10] = test system: LS513 xenografts; assay: Tumor xenograft experiment; type: in vivo, nude mice; conditions: MS934 50 mg/kg intraperitoneal daily, lapatinib 100 mg/kg oral gavage daily, or the combination; two weeks
Experimental: Animal studies were conducted in accordance with the guidelines set forth by the Institutional Animal Care and Use Committee. 1×10^6 LS513 cells were prepared in growth factor reduced Matrigel (Corning) 1:1 and injected into the right flank of 6- to 8-weeks old nude mice. […] For in vivo studies, MS934 was resuspended in 5% N-methyl-2-pyrrolidinone (NMP), 5% Kolliphor HS-15 (sigma) and 90% saline; and delivered by intraperitoneal injection (daily). […] Tumor volumes were evaluated every two days using a caliper and the volume was calculated applying the following formula: [(width)^2×(length)]/2.

[11] = target: T3, MDR1 (Homo sapiens, UniProt P08183); assay: Rhodamine 123 efflux assay in DLD-1 cells; type: cell-based; set-up: endogenous in cells; conditions: 2 μM
Experimental: (§1) Efflux assay was performed according to manufacturer's protocol (Millipore Sigma #ECM910). Cells were resuspended in cold efflux buffer and incubated with Rhodamine 123 for 1 hour on ice. Cells were centrifuged and treated in warm efflux buffer with DMSO or drug for 30-60 minutes, washed with cold PBS, and effluxed dye was quantified with a plate reader at an excitation wavelength of 485 nm and an emission wavelength of 530 nm.

[12] = target: T3, MDR1; assay: Rhodamine 123 efflux assay in LS513 cells; type: cell-based; set-up: endogenous in cells; conditions: 2 μM
Experimental: as §1, with “Cells were resuspended in cold efflux buffer and incubated with Rhodamine 123 for 1 hour on ice.” left out

[13] = test system: ERBB3 and downstream AKT signaling; assay: Western blot of MEKi-induced ERBB3/AKT signaling in LS513 cells; type: cell-based; set-up: dose or concentration left out as unconfirmed; conditions: LS513, 48 hours
Experimental: as §2

[14] = test system: A1847 dBET6-R or Thal-R cells; assay: Apoptosis by western blot in degrader-resistant A1847 cells; type: cell-based; conditions: 2 μM, 4 hours
Experimental: as §2

[15] = target: T4, BRD4 (BET proteins) (Homo sapiens, UniProt O60885); assay: Western blot of BET protein/BRD4 degradation in DLD-1 cells; type: cell-based; conditions: 4 hours
T4 construct: endogenous in cells; host or cells: DLD-1
Experimental: as §2

[16] = test system: DLD-1 cells; assay: Colony formation assay (14 days) in DLD-1 cells
[17] = target: T3, MDR1; assay: Rhodamine 123 efflux assay in degrader-resistant cells; type: cell-based; set-up: endogenous in cells; host or cells: A1847 parental, dBET6-R, Thal-R; SUM159 parental, MZ1-R
Experimental: as §1

[18] = test system: SW837 cells; assay: CellTiter-Glo viability with Bliss drug synergy analysis in SW837 cells
[19] = test system: A1847 or SUM159 cells; assay: Colony formation assay (14 days, crystal violet); conditions: SUM159 cells expressing Flag-MDR1, MZ1 0.1 μM, with or without tariquidar 0.1 μM
[20] = test system: SW1463 cells; assay: CellTiter-Glo viability with Bliss drug synergy analysis in SW1463 cells; type: cell-based
[21] = test system: OVCAR3, HCT116, and MOLT4 cells; assay: CellTiter-Glo cell viability, parental vs MZ1 chronically exposed cells; conditions: MZ1-R OVCAR3 and HCT116 vs parental

T2 sequence (P50750 whole entry): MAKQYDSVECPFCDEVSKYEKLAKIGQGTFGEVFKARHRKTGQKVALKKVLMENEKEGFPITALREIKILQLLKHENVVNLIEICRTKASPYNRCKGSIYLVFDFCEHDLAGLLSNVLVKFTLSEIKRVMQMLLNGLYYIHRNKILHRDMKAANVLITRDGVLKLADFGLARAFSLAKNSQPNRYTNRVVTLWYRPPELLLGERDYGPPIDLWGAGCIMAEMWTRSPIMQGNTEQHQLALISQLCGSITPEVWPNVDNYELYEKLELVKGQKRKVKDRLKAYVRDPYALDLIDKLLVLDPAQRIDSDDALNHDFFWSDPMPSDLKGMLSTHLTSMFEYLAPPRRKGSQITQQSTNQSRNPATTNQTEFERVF
T2 sequence (O60563 whole entry partner): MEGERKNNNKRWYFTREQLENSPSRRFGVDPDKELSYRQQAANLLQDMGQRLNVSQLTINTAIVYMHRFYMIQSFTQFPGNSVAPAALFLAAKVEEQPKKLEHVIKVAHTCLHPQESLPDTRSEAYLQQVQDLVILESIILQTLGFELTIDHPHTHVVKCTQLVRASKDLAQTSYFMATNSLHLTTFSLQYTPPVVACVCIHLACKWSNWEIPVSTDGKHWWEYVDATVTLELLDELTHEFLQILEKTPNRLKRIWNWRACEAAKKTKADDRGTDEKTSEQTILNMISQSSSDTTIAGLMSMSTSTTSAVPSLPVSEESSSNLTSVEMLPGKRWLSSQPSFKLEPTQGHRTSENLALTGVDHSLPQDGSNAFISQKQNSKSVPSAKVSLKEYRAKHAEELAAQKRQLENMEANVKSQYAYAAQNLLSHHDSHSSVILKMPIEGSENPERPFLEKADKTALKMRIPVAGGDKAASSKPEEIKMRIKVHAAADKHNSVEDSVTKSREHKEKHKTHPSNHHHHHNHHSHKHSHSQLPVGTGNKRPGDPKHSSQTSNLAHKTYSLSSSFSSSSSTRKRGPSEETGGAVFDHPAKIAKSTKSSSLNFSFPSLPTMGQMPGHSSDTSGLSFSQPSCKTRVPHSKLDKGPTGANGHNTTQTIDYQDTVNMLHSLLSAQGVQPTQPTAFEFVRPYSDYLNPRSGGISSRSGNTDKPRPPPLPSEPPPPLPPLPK
T3 sequence (P08183 whole entry): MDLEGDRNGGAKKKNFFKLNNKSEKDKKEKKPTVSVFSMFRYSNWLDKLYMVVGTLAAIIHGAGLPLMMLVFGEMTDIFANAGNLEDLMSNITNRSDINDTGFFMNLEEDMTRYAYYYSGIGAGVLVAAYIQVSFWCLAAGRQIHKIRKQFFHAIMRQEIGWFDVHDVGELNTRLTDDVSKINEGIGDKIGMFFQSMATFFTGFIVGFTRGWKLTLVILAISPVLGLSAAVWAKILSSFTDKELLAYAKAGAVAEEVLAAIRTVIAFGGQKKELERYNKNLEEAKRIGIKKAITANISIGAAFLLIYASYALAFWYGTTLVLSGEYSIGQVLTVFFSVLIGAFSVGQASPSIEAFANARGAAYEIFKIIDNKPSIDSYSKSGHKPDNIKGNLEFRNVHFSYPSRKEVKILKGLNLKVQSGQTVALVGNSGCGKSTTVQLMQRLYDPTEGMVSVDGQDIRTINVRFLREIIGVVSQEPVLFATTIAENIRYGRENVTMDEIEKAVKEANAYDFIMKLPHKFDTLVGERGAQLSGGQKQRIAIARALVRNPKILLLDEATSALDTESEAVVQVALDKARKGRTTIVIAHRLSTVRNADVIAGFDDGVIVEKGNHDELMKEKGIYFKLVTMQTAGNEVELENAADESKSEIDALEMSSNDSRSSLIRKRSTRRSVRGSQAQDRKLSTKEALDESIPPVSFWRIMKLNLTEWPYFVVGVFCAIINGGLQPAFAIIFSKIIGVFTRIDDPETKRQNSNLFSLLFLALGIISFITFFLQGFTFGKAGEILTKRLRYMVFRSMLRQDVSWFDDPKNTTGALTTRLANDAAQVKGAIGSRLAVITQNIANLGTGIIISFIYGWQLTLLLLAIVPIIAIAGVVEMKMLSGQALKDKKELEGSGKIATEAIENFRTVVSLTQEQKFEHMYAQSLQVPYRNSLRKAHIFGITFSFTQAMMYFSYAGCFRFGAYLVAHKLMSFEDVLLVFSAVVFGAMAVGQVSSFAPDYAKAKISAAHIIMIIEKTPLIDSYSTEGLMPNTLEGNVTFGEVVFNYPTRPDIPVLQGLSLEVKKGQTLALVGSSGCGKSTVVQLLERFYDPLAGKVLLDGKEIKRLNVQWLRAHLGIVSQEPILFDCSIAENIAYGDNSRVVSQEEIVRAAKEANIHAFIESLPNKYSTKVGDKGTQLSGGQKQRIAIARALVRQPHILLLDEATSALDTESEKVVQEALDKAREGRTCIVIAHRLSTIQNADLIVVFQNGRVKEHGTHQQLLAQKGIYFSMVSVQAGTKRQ

`C=C(F)C(=O)N1CCN(c2nc(OC[C@@H]3CCCN3CCCOCCC(=O)N[C@H](C(=O)N3C[C@H](O)C[C@H]3C(=O)NCc3ccc(-c4scnc4C)cc3)C(C)(C)C)nc3c2CCN(c2cccc4cccc(Cl)c24)C3)C[C@@H]1CC#N` [LC-2] was tested, and the “KRASG12C protein levels, single agent” value ([1]; SW1463 cells, 1 μM) was “had no impact on KRASG12C protein levels” and the “sensitivity (colony formation)” value [2] was “intrinsic resistance”.

`CC(C)(C)c1cnc(CSc2cnc(NC(=O)C3CCN(CC(=O)NCCOCCOCCOCCNc4cccc5c4C(=O)N(C4CCC(=O)NC4=O)C5=O)CC3)s2)o1` (stereo not drawn) [Thal SNS 032] was tested, and the “cell viability of MDR1 overexpressing cells” value [3] was “did not reduce cell viability to the extent of cancer cell lines expressing low or no detectable MDR1 protein”, the “cross-resistance to PROTACs targeting other proteins” value [4] was “cross-resistant” and the “MDR1 protein levels upregulated relative to parental cell lines by LFQ analysis” value [5] was about 2.5 fold. The “CDK9 protein levels and phosphorylation of RNA polymerase (S2)” value ([6]; chronically exposed A1847 cells vs parental, increasing doses, 24 hours) was “did not inhibit cell viability or reduce CDK9 protein levels”, the “acquired resistance (cell viability dose-response)” value ([7]; A1847 parental vs chronically exposed cells, escalating doses, 5 days) was “acquire resistance” and the “reduction of intended degrader target (CDK9)” value ([8]; DLD-1, single agent, escalating doses, vs A1847 or MOLT4) was “did not reduce the intended degrader target to the extent observed with degrader-sensitive A1847 or MOLT4 cells”. The “degradation efficiency of CDK9 on co-treatment with tariquidar” value ([8]; DLD-1, increasing doses plus tariquidar 0.1 μM) was “improved the degradation efficiency”.

`CS(=O)(=O)CCNCc1ccc(-c2ccc3ncnc(Nc4ccc(OCc5cccc(F)c5)c(Cl)c4)c3c2)o1` [lapatinib] was tested, and the “degradation of BET proteins in degrader-resistant cell lines” value ([9]; A1847 dBET6-R or MZ1-R vs parental, 2 μM, 4 hours) was “resulted in degradation of BET proteins”, the “tumor growth (tumor volume)” value [10] was “ineffective” and the “PROTAC-mediated degradation of KRASG12C on combining with LC-2” value ([1]; SW1463, 48 hours) was “improved PROTAC-mediated degradation of KRASG12C reducing protein levels”. For the same compound, the “phosphorylation of MEK and ERK on combining with LC-2” value ([1]; SW1463, 48 hours) was “reduced phosphorylation of MEK and ERK”, the “CRAF and AKT phosphorylation and apoptosis on combining with LC-2” value ([1]; SW1463, lapatinib 5 μM, 48 hours) was “uniquely reduced CRAF and AKT phosphorylation, as well as induced apoptosis” and the “MDR1 drug efflux activity (Rhodamine 123 efflux)” value (from here on “MDR1 drug efflux activity”) [11] was “reduced MDR1 drug efflux activity similar to tariquidar-treatment”. The “MDR1 drug efflux activity” value [12] was “reduced MDR1 drug efflux activity similar to tariquidar”, the “MEK inhibitor-induced ERBB3 and downstream AKT and RAF signaling” value [13] was “could be blocked by lapatinib treatment” and the “apoptosis in degrader-resistant cell lines” value [14] was “resulted in apoptosis similar to tariquidar treatment”. For the same compound, the “reduction in concentrations of dBET6 required to degrade BRD4 when combined” value ([15]; combined with the compound at 2 μM) was 100 fold, the “dBET6-mediated degradation of BRD4 on combined treatment” value ([15]; increasing doses of dBET6 plus the compound at 2 μM) was “improved dBET6-mediated degradation of BRD4” and the “degradation of CDK9 in degrader-resistant cell lines” value ([6]; A1847 Thal-R vs parental, 2 μM, 4 hours) was “resulted in degradation of BET proteins (FIG. 5, Panel G; FIG. 12, Panels E and F) or CDK9”. The “growth inhibition of colonies on combination with Thal SNS 032” value ([16]; compound at 2 μM, 14 days) was “enhancing growth inhibition of colonies”, the “colony formation on co-treatment with dBET6” value ([16]; dBET6 0.1 μM plus the compound at 2 μM, 14-day period) was “sensitized DLD-1 cells to dBET6” and the “MDR1 drug efflux activity” value ([17]; A1847 dBET6-R or Thal-R cell lines, 2 μM) was “reduced MDR1 drug efflux activity similar to that observed with tariquidar”. The “sensitivity of degrader-resistant cells vs parental cells (cell viability)” value [7] was “more sensitive” and the “degradation of CDK9 by Thal SNS 032 on combined treatment” value ([8]; DLD-1, increasing doses of Thal SNS 032 plus the compound at 2 μM) was “improving degradation of CDK9”.

For `COc1cc2c(cc1OC)CN(CCc1ccc(NC(=O)c3cc(OC)c(OC)cc3NC(=O)c3cnc4ccccc4c3)cc1)CC2` [tariquidar], the “drug synergy with LC-2” value [18] was “marginal synergy”, the “degradation of BET proteins in degrader-resistant cells on MDR1 inhibition” value ([9]; tariquidar 0.1 μM, 24 hours, A1847 dBET6-R, SUM159 MZ1-R (maintained in PROTAC)) was “restored degradation of BET proteins or CDK9” and the “PROTAC-mediated degradation of KRASG12C on combining with LC-2” value ([1]; SW1463, 48 hours) was “improved PROTAC-mediated degradation of KRASG12C reducing protein levels”. The “phosphorylation of MEK and ERK on combining with LC-2” value ([1]; SW1463, 48 hours) was “reduced phosphorylation of MEK and ERK”, the “colony formation with forced expression of Flag-MDR1” value [19] was “could be blocked by tariquidar-treatment” and the “drug synergy with LC-2” value [20] was “marginal synergy”. The “degradation of CDK9 in degrader-resistant cells on MDR1 inhibition” value ([6]; tariquidar 0.1 μM, 24 hours, A1847 Thal-R) was “restored degradation of BET proteins or CDK9”, the “sensitivity of MZ1-resistant cells (cell viability)” value [21] was “increased sensitivity” and the “MDR1 drug efflux pump activity (efflux of Rhodamine 123)” value ([17]; A1847 dBET6-R, Thal-R or MZ1-R SUM159 cells compared to parental cells) was “reduced MDR1 drug efflux pump activity”. The “sensitivity of degrader-resistant cells vs parental cells (cell viability)” value [7] was “more sensitive”.

— US20250041303A1, “COMBINATION THERAPY FOR CANCER TREATMENT” (INSTITUTE FOR CANCER RESEARCH D/B/A THE RESEARCH INSTITUTE …, priority 2021, published 2025)
